According to patent US9708665B2, “Spatial biomarker of disease and detection of spatial organization of cellular receptors” (The Regents of the University of California, priority 2009, dated 2017):
“Also recorded” adds a separate entry of the source.

Key:
MDA-MB-231 cells [1] = assay: Trypan blue staining and cell counting (cell viability) under ROCK inhibitor treatment; assay type: cell-based, human; conditions: 2 hrs at 37° C., 1-50 μM
Protocol: ROCK Inhibition. Cells were detached from cell culture flasks using trypsin-EDTA and incubated at 37° C. for 2 hrs in media containing ROCK inhibitor Y-27632 (Sigma-Aldrich, Inc.) at concentrations ranging from 1-50 μM. […] Cells were cultured in drugged media for one hr on well plates containing Alexa Fluor 647-labeled ephrin-A1 functionalized supported bilayers. Cells were fixed, stained and imaged with epifluorescence microscopy as described above.

MDA-MB-231 cells [2] = assay: ROCK inhibition: EphA2-ephrin-A1 radial transport on ephrin-A1 functionalized supported bilayers; assay type: cell-based, human; conditions: inhibitor 1 to 50 μM, normalized to untreated samples
Protocol: Radial Transport Analysis. Bright field microscopy was used to determine the area occupied by each cell. The corresponding areas in the fluorescence channel were then analyzed using the Radial Profile plugin from ImageJ, yielding a plot of normalized fluorescence intensities versus radial distance from the cell center. Plots were then normalized for cell size and averaged. Least squares analysis was then performed on the average normalized radial distribution using Origin 7.0 (OriginLab, Northampton, Mass.), and the slope of the calculated line was used as a score for propensity to radially transport ephrin-A1. ROCK Inhibition. Cells were detached from cell culture flasks using trypsin-EDTA and incubated at 37° C. for 2 hrs in media containing ROCK inhibitor Y-27632 (Sigma-Aldrich, Inc.) at concentrations ranging from 1-50 μM. […] Cells were cultured in drugged media for one hr on well plates containing Alexa Fluor 647-labeled ephrin-A1 functionalized supported bilayers. Cells were fixed, stained and imaged with epifluorescence microscopy as described above.

MDA-MB-231 cells [3] = conditions: binary mixture with ephrin-A1, 1 hr after plating
Protocol: Surface Functionalization. After lipid bilayer deposition, substrates were incubated for 45 min with a 0.01% bovine serum albumin (BSA; Sigma-Aldrich, Inc.) solution to minimize non-specific protein adsorption. The supported membranes were then incubated with a 17 nM solution of streptavidin (Fisher Scientific, Pittsburgh, Pa.) for 45 minutes. For experiments that quantify protein surface density, streptavidin conjugated to Alexa Fluor 488 (Invitrogen Corp.) was substituted for the unlabeled protein. The supported membrane was then thoroughly rinsed and substrates were incubated for 45 min with a 50 nM solution of ephrin-A1 (R&D Systems, Minneapolis, Minn.), which had been biotinylated (Fisher Scientific) and conjugated to Alexa Fluor 594 or Alexa Fluor 647 (both from Invitrogen Corp.).
Optical Microscopy. We used Nikon Eclipse TE2000-E and TE300 inverted microscopes with mercury arc lamps for epifluorescence illumination and 12 V, 100 W halogen lamps for bright field illumination. Total internal reflection fluorescence (TIRF) illumination was provided using a krypton/argon ion laser for 647 nm excitation, and an argon ion laser (Stabilite 2018 and Model 177 respectively, both from Spectra-Physics, Mountain View, Calif.) for 488 nm excitation. […]

Compound	cell viability (Trypan blue staining and cell counting) (MDA-MB-231 cells [1])	Eph-ephrin radial transport (capacity to transport EphA2-ephrin-A1 complexes to the center of the cell-supported membrane junction) (MDA-MB-231 cells [2])	EphA2 organization with increasing RGD peptide density (MDA-MB-231 cells [3])	cell-supported membrane contact area (RICM) with increasing RGD peptide density (MDA-MB-231 cells [3])
C[C@@H](N)[C@H]1CC[C@H](C(=O)Nc2ccncc2)CC1 [Y-27632]	no adverse effects	dose-dependent decrease; also recorded: dosage-dependent decrease	–	–
[Arg-Gly-Asp-d-Phe-Lys(Biotin-PEG-PEG)] [cyclic RGD peptide]	–	–	no change in EphA2 organization	progressively larger
